Here are results for one compound from PMC6271944 (Molecules, 2014).

In one data set the target is T1, CYP2C8 (Homo sapiens, UniProt P10632).
T1 construct: Pooled human liver microsomes (HLM, LOT 32556) were purchased from BD Gentest Corporation; tissue BD Gentest Corporation LOT 32556; host or cells: pooled human liver microsomes
T1 sequence (P10632 1-490): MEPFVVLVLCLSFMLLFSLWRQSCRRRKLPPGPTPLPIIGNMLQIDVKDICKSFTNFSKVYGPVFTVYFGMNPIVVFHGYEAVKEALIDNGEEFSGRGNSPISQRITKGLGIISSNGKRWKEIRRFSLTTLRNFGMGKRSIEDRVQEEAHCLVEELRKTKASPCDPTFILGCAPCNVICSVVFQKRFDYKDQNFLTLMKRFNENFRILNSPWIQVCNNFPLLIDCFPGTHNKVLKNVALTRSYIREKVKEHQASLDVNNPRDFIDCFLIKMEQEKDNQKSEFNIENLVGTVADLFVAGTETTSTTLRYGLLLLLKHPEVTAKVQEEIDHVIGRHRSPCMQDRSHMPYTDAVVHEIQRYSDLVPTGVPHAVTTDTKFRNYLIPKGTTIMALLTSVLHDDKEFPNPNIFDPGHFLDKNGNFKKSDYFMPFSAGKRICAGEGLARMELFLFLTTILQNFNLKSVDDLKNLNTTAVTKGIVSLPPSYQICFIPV
The experiment in a line: CYP inhibition in human liver microsomes, substrate cocktail, LC-MS/MS (paclitaxel). Type of data set: in vitro ADME. The conditions noted are these: metabolite 6α-hydroxypaclitaxel, read-out: IC50 for HLM, CYP2C8. An excerpt: (§1) Positive controls (furafyline for CYP1A2, montelukast for CYP2C8, sulfaphenazole for CYP2C9, S-(+)-N-3-benzylnirvanol for CYP2C19, quinidine for CYP2D6, ketoconazole for CYP3A4) and specific substrates (phenacetin for CYP1A2, paclitaxel for CYP2C8, diclofenac for CYP2C9, S-mephenytoin for CYP2C19, dextromethorphan for CYP2D6, midazolam for CYP3A4) are consistent with our previous papers. The substrates were used at concentrations approximately equal to their respective Michaelis-Menten constant (Km) values: 10 μM phenacetin, 5 μM paclitaxel, 5 μM diclofenac, 200 μM S-mephenytoin, 5 μM dextromethorphan, and 2 μM midazolam. NADP^+ was added after a 15 min preincubation of all other components at 37 °C. After a given incubation time (30 min), the reactions were terminated by addition of 60 μL ice-cold acetonitrile containing gemfibrozil and buspirone as internal standards. Incubation samples were stored at −80 °C until used in liquid chromatography-tandem mass spectrometry (LC-MS/MS) analysis. The mixture was centrifuged at 3,500 rpm for 5 min. The supernatant was mixed with equal volume of a 1:1 mixture of methanol and water and 20 μL of the final mixture was used for LC-MS/ MS analysis. […]
(§2) The CYP inhibition potential were evaluated by measuring the formation of one or more metabolites of the test substrates. […]

The subject of the next data set is rat CYP1A2. The conditions noted are these: cited from earlier work.
For another data set, the target named is T2, CYP2D4 (Rattus norvegicus, UniProt Q64680).
T2 sequence (Q64680 1-500): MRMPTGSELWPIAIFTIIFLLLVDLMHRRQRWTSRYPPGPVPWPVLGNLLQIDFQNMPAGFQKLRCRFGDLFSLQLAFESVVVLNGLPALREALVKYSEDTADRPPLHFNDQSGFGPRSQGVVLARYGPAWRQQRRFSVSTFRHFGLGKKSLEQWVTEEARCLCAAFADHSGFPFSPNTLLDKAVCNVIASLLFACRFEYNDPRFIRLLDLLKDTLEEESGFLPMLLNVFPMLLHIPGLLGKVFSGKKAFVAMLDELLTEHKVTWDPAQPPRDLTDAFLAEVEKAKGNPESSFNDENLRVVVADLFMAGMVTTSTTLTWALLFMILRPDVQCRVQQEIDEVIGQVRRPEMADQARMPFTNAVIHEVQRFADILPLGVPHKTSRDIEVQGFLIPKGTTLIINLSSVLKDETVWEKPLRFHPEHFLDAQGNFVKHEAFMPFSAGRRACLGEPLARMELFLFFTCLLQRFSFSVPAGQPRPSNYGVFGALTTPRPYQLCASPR
The experiment in a line: CYP inhibition in rat liver microsomes, substrate cocktail, LC-MS/MS (dextromethorphan). Type of data set: in vitro ADME. The conditions noted are these: pH 7.4, probe dextromethorphan 5 μM, read-out: IC50 for RLM, CYP2D4 (table row CYP2D6).
From the text: as §1, §2

The next data set deals with UGT1A9. Set-up: dose or concentration left out as unconfirmed. The following applies: cited from earlier work.
The next data set has as its system UGT1A6. Also on record: dose or concentration left out as unconfirmed. The following applies: cited from earlier work.
The subject of the next data set is CYP2C79. The experiment in a line: CYP inhibition in rat liver microsomes, substrate cocktail, LC-MS/MS (S-mephenytoin). Type of data set: in vitro ADME. The following applies: pH 7.4, probe S-mephenytoin 200 μM, 95% CI in brackets, read-out: IC50 for RLM, CYP2C79 (table row CYP2C19).
From the text: as §1, §2

In a further data set the target is T3, CYP2C19 (Homo sapiens, UniProt P33261).
T3 construct: Pooled human liver microsomes (HLM, LOT 32556) were purchased from BD Gentest Corporation; tissue BD Gentest Corporation LOT 32556; host or cells: pooled human liver microsomes
The experiment in a line: CYP inhibition in human liver microsomes, substrate cocktail, LC-MS/MS (S-mephenytoin). The conditions noted are these: metabolite 4-hydroxymephenytoin, 95% CI in brackets, read-out: IC50 for HLM, CYP2C19. Type of data set: in vitro ADME.
From the text: as §1, §2

Another data set deals with UGT1A1. Set-up: dose or concentration left out as unconfirmed. The conditions noted are these: cited from earlier work.
The test system of the next data set is WM-266-4 cells. The experiment in a line: Cytotoxicity on WM-266-4 cells. Format: cell-based, human. The following applies: even at highest concentration.
For another data set, the target named is T4, CYP2C9 (Homo sapiens, UniProt P11712).
T4 construct: Pooled human liver microsomes (HLM, LOT 32556) were purchased from BD Gentest Corporation; tissue BD Gentest Corporation LOT 32556; host or cells: pooled human liver microsomes
The experiment in a line: CYP inhibition in human liver microsomes, substrate cocktail, LC-MS/MS (diclofenac). Format: in vitro ADME. The conditions noted are these: metabolite 4-hydroxydiclofenac, read-out: IC50 for HLM, CYP2C9.
From the text: as §1, §2

T3 sequence (P33261 whole entry): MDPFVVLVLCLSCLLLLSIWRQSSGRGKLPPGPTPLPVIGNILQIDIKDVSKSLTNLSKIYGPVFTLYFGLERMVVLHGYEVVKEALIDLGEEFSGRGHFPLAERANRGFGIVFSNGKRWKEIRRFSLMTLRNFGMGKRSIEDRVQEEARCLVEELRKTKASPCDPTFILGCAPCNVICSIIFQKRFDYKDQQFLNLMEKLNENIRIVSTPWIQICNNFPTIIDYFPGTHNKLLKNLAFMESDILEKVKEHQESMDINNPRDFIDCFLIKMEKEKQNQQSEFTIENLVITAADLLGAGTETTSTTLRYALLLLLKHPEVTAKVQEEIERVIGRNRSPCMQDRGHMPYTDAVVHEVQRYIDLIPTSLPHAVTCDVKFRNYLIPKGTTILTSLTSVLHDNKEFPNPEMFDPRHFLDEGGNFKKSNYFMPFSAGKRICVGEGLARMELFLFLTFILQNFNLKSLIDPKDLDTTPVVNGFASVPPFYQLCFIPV
T4 sequence (P11712 whole entry): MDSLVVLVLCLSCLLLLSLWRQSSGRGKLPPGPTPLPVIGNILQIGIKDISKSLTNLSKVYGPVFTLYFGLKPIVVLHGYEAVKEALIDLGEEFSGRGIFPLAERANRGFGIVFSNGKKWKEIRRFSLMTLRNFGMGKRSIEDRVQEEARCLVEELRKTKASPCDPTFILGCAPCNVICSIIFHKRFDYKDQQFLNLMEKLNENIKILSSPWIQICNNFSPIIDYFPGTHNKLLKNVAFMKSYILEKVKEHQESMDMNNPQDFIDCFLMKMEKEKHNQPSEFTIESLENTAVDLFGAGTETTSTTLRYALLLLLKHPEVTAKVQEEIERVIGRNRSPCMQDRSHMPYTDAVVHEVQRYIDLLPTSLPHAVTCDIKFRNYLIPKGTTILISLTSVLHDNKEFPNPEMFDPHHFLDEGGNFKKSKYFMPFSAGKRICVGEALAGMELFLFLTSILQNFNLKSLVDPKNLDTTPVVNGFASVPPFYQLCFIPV

Take `O=C(O)[C@H]1O[C@@H](Oc2cc3oc(-c4ccc(O)cc4)cc(=O)c3c(O)c2O)[C@H](O)[C@@H](O)[C@@H]1O` [scutellarin, Scutellarin]: the IC50 at CYP2C8 was > 100 µM; in the data set with rat CYP1A2 (in vitro experiments), 108.2 ± 0.657 µM; on CYP2C19, 63.8 µM; at CYP2C9, > 100 µM. In the data set on rat CYP1A2 (weak mixed-type inhibition, read-out: Ki against the activity of CYP1A2), the inhibition constant (Ki) is 95.2 µM. The 50% inhibitory concentration (IC50) at 30 min is > 100 µM at CYP2D4 and 85.6 µM in the data set with CYP2C79. Also, the “inhibition towards the activity of UGT1A9” value in the data set with UGT1A9 is 36.1%. Also, the “inhibition towards the activity of UGT1A6” value in the data set on UGT1A6 was 20.2%. Also, the “inhibition towards the activity of UGT1A1” value in the data set with UGT1A1 is reported as 48.8%. Also, in the data set with WM-266-4 cells, the “cytotoxicity on WM-266-4 cells” value was “does not show cytotoxicity”.
